Test [1] has as its target T1, human SLC6A19 and TMEM27 (Homo sapiens, UniProt Q695T7).
T1 construct: expressed in transfected cells
T1 sequence (Q695T7 1-634): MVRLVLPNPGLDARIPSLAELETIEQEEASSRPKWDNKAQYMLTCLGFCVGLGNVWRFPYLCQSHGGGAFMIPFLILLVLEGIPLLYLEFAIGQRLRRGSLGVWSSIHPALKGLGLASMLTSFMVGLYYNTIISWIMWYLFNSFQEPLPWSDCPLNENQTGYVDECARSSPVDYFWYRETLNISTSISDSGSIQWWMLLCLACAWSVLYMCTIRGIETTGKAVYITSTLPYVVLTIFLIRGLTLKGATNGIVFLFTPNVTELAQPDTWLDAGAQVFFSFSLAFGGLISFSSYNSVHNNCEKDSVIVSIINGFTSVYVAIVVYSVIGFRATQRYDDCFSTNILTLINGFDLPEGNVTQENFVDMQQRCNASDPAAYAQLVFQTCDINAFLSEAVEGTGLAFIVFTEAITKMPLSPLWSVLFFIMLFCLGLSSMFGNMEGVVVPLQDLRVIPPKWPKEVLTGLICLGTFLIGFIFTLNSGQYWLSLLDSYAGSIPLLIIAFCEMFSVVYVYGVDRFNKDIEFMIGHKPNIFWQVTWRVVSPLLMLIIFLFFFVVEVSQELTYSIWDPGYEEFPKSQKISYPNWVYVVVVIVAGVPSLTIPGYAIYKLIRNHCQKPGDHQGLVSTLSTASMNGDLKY
T1 sequence (Q9HBJ8 15-222 partner): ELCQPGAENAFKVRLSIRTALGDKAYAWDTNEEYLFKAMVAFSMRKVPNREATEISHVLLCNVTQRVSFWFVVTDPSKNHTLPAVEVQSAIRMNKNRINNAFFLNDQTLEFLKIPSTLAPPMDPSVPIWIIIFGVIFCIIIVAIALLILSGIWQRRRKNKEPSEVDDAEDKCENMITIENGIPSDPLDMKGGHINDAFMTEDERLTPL
The experiment in a line: 13C6,15N-isoleucine uptake in CHO cells with doxycycline-inducible expression of human SLC6A19 and TMEM27, RapidFire mass spectrometry (Example B-2). The format is cell-based. As to conditions: read-out: SLC6A19_RapidFire Uptake Assay IC50. The method, boiled down:
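Read-out is RapidFire mass-spec peak area of 13C6,15N-isoleucine taken up over 20 min at 37 °C, after 20 min compound pre-exposure in pH 7.2 HEPES-buffered saline. Cells: doxycycline-induced CHO co-expressing human SLC6A19 and TMEM27; compounds as duplicate 10-point 2-fold dilutions, positive control setting 0% activity.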

Test [2] has as its target T1, human SLC6A19 and TMEM27. In words: Radiolabelled (3H) leucine uptake in CHO cells with doxycycline-inducible expression of human SLC6A19 and TMEM27 (Example B-1). It is filed as cell-based. As to conditions: CHO cells with doxycycline-inducible expression of human SLC6A19 and TMEM27, read-out: SLC6A19_Radioligand Uptake Assay IC50. In a few lines:
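CHO cells were induced with doxycycline for 18 h at 37 °C, washed in HBSS, then exposed to compounds for 1 h: 8-point, 3-fold dilutions in duplicate, 0.5% DMSO final. Uptake measured by scintillation counting after 2 h shaking. Activity normalized with positive control as 0% and DMSO as 100%.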

Each structure is given as a SMILES string. pIC50: −log10 of the molar value.

In general, pIC50 refers to the IC50 on a negative log10 scale, so that one unit is a factor of ten. Regarding `Cc1coc(COc2cc3[nH]c(CNC(=O)N4CCCC4)cc3cc2Cl)n1` [Compound 426, N-((5-chloro-6-((4-methyloxazol-2-yl)methoxy)-1H-indol-2-yl)methyl)pyrrolidine-1-carboxamide], the negative logarithm of the IC50 (pIC50) on human SLC6A19 and TMEM27 [1] is 6.66; at human SLC6A19 and TMEM27 [2] it was 6.45.
On the same counts, the results for `O=C(NCc1cc2cc(F)c(OCc3cscn3)cc2[nH]1)C1CCC1` [Compound 430, N-((5-fluoro-6-(thiazol-4-ylmethoxy)-1H-indol-2-yl)methyl)cyclobutanecarboxamide] are 7.16 and 6.86.
The like results for `O=C(NCc1cc2cc(F)c(OCc3ccon3)cc2[nH]1)C1CCC1` [Compound 431, N-((5-fluoro-6-(isoxazol-3-ylmethoxy)-1H-indol-2-yl)methyl)cyclobutanecarboxamide] were, in that order, 6.46 and 6.61.
On the same counts, the results for `CC(C)(C)C(=O)NCc1cc2cc(Cl)c(OCc3cscn3)cc2[nH]1` [Compound 432, N-((5-chloro-6-(thiazol-4-ylmethoxy)-1H-indol-2-yl)methyl)pivalamide] are 6.60 and 6.42.
Regarding `Cn1ncc(COc2cc3[nH]c(CNC(=O)C4CC4)cc3cc2F)n1` [Compound 433, N-((5-fluoro-6-((2-methyl-2H-1,2,3-triazol-4-yl)methoxy)-1H-indol-2-yl)methyl)cyclopropanecarboxamide], the pIC50 on human SLC6A19 and TMEM27 [1] is 5.82; on human SLC6A19 and TMEM27 [2] it was 6.25.
On the same counts, the results for `CCC(=O)NCc1cc2cc(Cl)c(OCc3cc(C)no3)cc2[nH]1` [Compound 438, N-((5-chloro-6-((3-methylisoxazol-5-yl)methoxy)-1H-indol-2-yl)methyl)propionamide] are 7.57 and 7.15.
On the same counts, the results for `CC1(C(=O)NCc2cc3cc(Cl)c(NCc4cscn4)cc3[nH]2)CC1` [Compound 452, N-((5-chloro-6-((thiazol-4-ylmethyl)amino)-1H-indol-2-yl)methyl)-1-methylcyclopropane-1-carboxamide] are 7.20 and 6.84.
The like results for `CC1(C(=O)NCc2cc3cc(F)c(OCc4ccc5ccoc5c4)cc3[nH]2)CC1` [Compound 460, N-((6-(benzofuran-6-ylmethoxy)-5-fluoro-1H-indol-2-yl)methyl)-1-methylcyclopropane-1-carboxamide] were, in that order, 6.14 and 5.87.
With `CC1(C(=O)NCc2cc3cc(Cl)c(OCc4ccc5ccoc5c4)cc3[nH]2)CC1` [Compound 461, N-((6-(benzofuran-6-ylmethoxy)-5-chloro-1H-indol-2-yl)methyl)-1-methylcyclopropane-1-carboxamide], the pIC50 is 6.00 on human SLC6A19 and TMEM27 [1]; 5.57 on human SLC6A19 and TMEM27 [2].
On the same counts, the results for `O=C(NCc1cc2cc(F)c(NCc3ccon3)cc2[nH]1)N1CCC1` [Compound 470, N-((5-fluoro-6-((isoxazol-3-ylmethyl)amino)-1H-indol-2-yl)methyl)azetidine-1-carboxamide] are 5.74 and 5.88.
The like results for `O=C(NCc1cc2cc(F)c(NCc3ccon3)cc2[nH]1)N1CCCC1` [Compound 471, N-((5-fluoro-6-((isoxazol-3-ylmethyl)amino)-1H-indol-2-yl)methyl)pyrrolidine-1-carboxamide] were, in that order, 5.96 and 6.22.
On the same counts, the results for `O=C(NCc1cc2cc(Cl)c(NCc3cscn3)cc2[nH]1)N1CCC1` [Compound 472, N-((5-chloro-6-((thiazol-4-ylmethyl)amino)-1H-indol-2-yl)methyl)azetidine-1-carboxamide] are 6.40 and 6.52.
In the case of `Cc1cc2c(Cl)c(CNC(=O)N3CCC3)[nH]c2cc1OCc1cscn1` [Compound 475, N-((3-chloro-5-methyl-6-(thiazol-4-ylmethoxy)-1H-indol-2-yl)methyl)azetidine-1-carboxamide], the pIC50 at human SLC6A19 and TMEM27 [1] is 6.86; on human SLC6A19 and TMEM27 [2], 6.36.
On the same counts, the results for `O=C(NCc1cc2cc(C(F)(F)F)c(OCc3cscn3)cc2[nH]1)N1CCC1` [Compound 478, N-((6-(thiazol-4-ylmethoxy)-5-(trifluoromethyl)-1H-indol-2-yl)methyl)azetidine-1-carboxamide] are 6.76 and 6.38.
The like results for `O=C(NCc1cc2cc(C(F)(F)F)c(OCc3cscn3)cc2[nH]1)N1CCCC1` [Compound 479, N-((6-(thiazol-4-ylmethoxy)-5-(trifluoromethyl)-1H-indol-2-yl)methyl)pyrrolidine-1-carboxamide] were, in that order, 6.26 and 5.78.
On the same counts, the results for `Cc1cc(COc2cc3[nH]c(CNC(=O)N4CCC4)cc3cc2F)on1` [Compound 481, N-((5-fluoro-6-((3-methylisoxazol-5-yl)methoxy)-1H-indol-2-yl)methyl)azetidine-1-carboxamide] are 6.53 and 6.50.
Regarding `CC(C)(C)C(=O)NCc1cc2cc(Cl)c(OCc3ccon3)cc2[nH]1` [Compound 493, N-((5-chloro-6-(isoxazol-3-ylmethoxy)-1H-indol-2-yl)methyl)pivalamide], the pIC50 is 5.94 at human SLC6A19 and TMEM27 [1]; 5.84 on human SLC6A19 and TMEM27 [2].
The like results for `CCC(=O)NCc1cc2cc(Cl)c(OCc3cccc(F)n3)cc2[nH]1` [Compound 494, N-((5-chloro-6-((6-fluoropyridin-2-yl)methoxy)-1H-indol-2-yl)methyl)propionamide] were, in that order, 7.45 and 6.83.
On to `O=C(NCc1cc2cc(Cl)c(OCc3cscn3)cc2[nH]1)C1CC(F)(F)C1` [Compound 495, N-((5-chloro-6-(thiazol-4-ylmethoxy)-1H-indol-2-yl)methyl)-3,3-difluorocyclobutane-1-carboxamide], for which the pIC50 on human SLC6A19 and TMEM27 [1] is 6.62; on human SLC6A19 and TMEM27 [2] it was 6.40.
The like results for `Cn1ncc(COc2cc3[nH]c(CNC(=O)C4(C)CC4)cc3cc2F)n1` [Compound 496, N-((5-fluoro-6-((2-methyl-2H-1,2,3-triazol-4-yl)methoxy)-1H-indol-2-yl)methyl)-1-methylcyclopropane-1-carboxamide] were, in that order, 6.37 and 6.37.
The like results for `O=C(NCc1cc2cc(F)c(OCc3cccc(F)n3)cc2[nH]1)C1CC1` [Compound 497, N-((5-fluoro-6-((6-fluoropyridin-2-yl)methoxy)-1H-indol-2-yl)methyl)cyclopropanecarboxamide] were, in that order, 6.74 and 6.71.
Turning to `Cn1ncc(COc2cc3[nH]c(CNC(=O)C4CC4)cc3cc2Cl)n1` [Compound 498, N-((5-chloro-6-((2-methyl-2H-1,2,3-triazol-4-yl)methoxy)-1H-indol-2-yl)methyl)cyclopropanecarboxamide], the negative logarithm of the IC50 (pIC50) is 7.04 at human SLC6A19 and TMEM27 [1]; 6.80 on human SLC6A19 and TMEM27 [2].
The like results for `O=C(NCc1cc2cc(Cl)c(OCc3cccc(F)n3)cc2[nH]1)C1CC1` [Compound 499, N-((5-chloro-6-((6-fluoropyridin-2-yl)methoxy)-1H-indol-2-yl)methyl)cyclopropanecarboxamide] were, in that order, 7.26 and 6.67.
The like results for `CC(C)C(=O)NCc1cc2cc(Cl)c(OCc3cocn3)cc2[nH]1` [Compound 500, N-((5-chloro-6-(oxazol-4-ylmethoxy)-1H-indol-2-yl)methyl)isobutyramide] were, in that order, 6.59 and 6.71.
The like results for `CC(C)C(=O)NCc1cc2cc(F)c(OCc3cocn3)cc2[nH]1` [Compound 501, N-((5-fluoro-6-(oxazol-4-ylmethoxy)-1H-indol-2-yl)methyl)isobutyramide] were, in that order, 5.89 and 6.51.
On to `CC1(C(=O)NCc2cc3cc(F)c(OCc4ccon4)cc3[nH]2)CCC1` [Compound 502, N-((5-fluoro-6-(isoxazol-3-ylmethoxy)-1H-indol-2-yl)methyl)-1-methylcyclobutane-1-carboxamide], for which the pIC50 at human SLC6A19 and TMEM27 [1] was 5.75; at human SLC6A19 and TMEM27 [2] it was 5.67.
The like results for `O=C(NCc1cc2cc(Cl)c(OCc3ccccn3)cc2[nH]1)C1CC1` [Compound 503, N-((5-chloro-6-(pyridin-2-ylmethoxy)-1H-indol-2-yl)methyl)cyclopropanecarboxamide] were, in that order, 7.18 and 6.50.

These data come from patent US20240199546A1, “INHIBITORS OF SOLUTE CARRIER FAMILY 6A MEMBER 19 (SLC6A19) AND METHODS OF USE THEREOF” (Maze Therapeutics, Inc., priority 2022, published 2024).
